In patent publication US9980943B2, “Methods of treating muscular dystrophy” (BOARD OF REGENTS OF THE NEVADA SYSTEM OF HIGHER EDUCATION, …, priority 2013, dated 2018):

What was measured:
Type in all cases: cell-based, mouse
[1] = test system: β-galactosidase in CMV-LacZ C2C12 myotubes; test: CMV-LacZ secondary screen in C2C12 myotubes (β-Gal stabilizing assay); conditions: C2C12 CMV-LacZ myotubes, fold relative to DMSO
Outline: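 Dose-response runs at 0.5–40 μM (0.5, 1, 5, 10, 20, 40 μM; N=2 per point) used a clonal C2C12 line carrying CMV-LacZ. Cells were assayed as myoblasts or as differentiated myotubes, and β-galactosidase levels were read with the FDG fluorogenic substrate.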

[2] = test system: β-galactosidase in CMV-LacZ C2C12 myoblasts; test: CMV-LacZ secondary screen in C2C12 myoblasts (β-Gal stabilizing assay); conditions: CMV-LacZ C2C12 myoblasts
Outline: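 Stable CMV-LacZ C2C12 clone; six-point curve 0.5–40 μM; duplicates.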

[3] = test system: α7 integrin (LacZ reporter in α7βgal+/− myoblasts); test: Myoblast α7+/LacZ integrin FDG assay (Burkin assay in myoblasts, 96-well); conditions: α7+/LacZ myoblasts, 96-well
[4] = test system: α7 integrin (LacZ reporter in α7+/LacZ myotubes); test: Myotube α7 integrin FDG assay (Burkin assay in myotubes, 96-well); conditions: myotubes

| Compound | CMV-LACZ in Myotubes, signal relative to DMSO ([1]; 0.5 uM) | CMV-LACZ in Myotubes, signal relative to DMSO ([1]; 1 uM) | CMV-LACZ in Myotubes, signal relative to DMSO ([1]; 5 uM) | CMV-LACZ in Myotubes, signal relative to DMSO ([1]; 10 uM) | CMV-LACZ in Myotubes, signal relative to DMSO ([1]; 20 uM) | CMV-LACZ in Myotubes, signal relative to DMSO ([1]; 40 uM) | CMV-LACZ in Myoblasts (β-galactosidase activity relative to DMSO) ([2]; 0.5 uM) | CMV-LACZ in Myoblasts (β-galactosidase activity relative to DMSO) ([2]; 1 uM) | CMV-LACZ in Myoblasts (β-galactosidase activity relative to DMSO) ([2]; 5 uM) | CMV-LACZ in Myoblasts (β-galactosidase activity relative to DMSO) ([2]; 10 uM) | CMV-LACZ in Myoblasts (β-galactosidase activity relative to DMSO) ([2]; 20 uM) | CMV-LACZ in Myoblasts (β-galactosidase activity relative to DMSO) ([2]; 40 uM) | Burkin Assay in Myoblasts, signal relative to DMSO ([3]; 0.5 uM) | Burkin Assay in Myoblasts, signal relative to DMSO ([3]; 1 uM) | Burkin Assay in Myoblasts, signal relative to DMSO ([3]; 5 uM) | Burkin Assay in Myoblasts, signal relative to DMSO ([3]; 10 uM) | Burkin Assay in Myoblasts, signal relative to DMSO ([3]; 20 uM) | Burkin Assay in Myoblasts, signal relative to DMSO ([3]; 40 uM) | Burkin Assay in Myotubes, α7 integrin LacZ reporter signal relative to DMSO ([4]; 0.5 uM) | Burkin Assay in Myotubes, α7 integrin LacZ reporter signal relative to DMSO ([4]; 1 uM) | also measured |
| --- | --- | --- | --- | --- | --- | --- | --- | --- | --- | --- | --- | --- | --- | --- | --- | --- | --- | --- | --- | --- | --- |
| O=C(O)CC1(c2ccccc2)C(=O)c2ccccc2C1=O [MLS000052969-01] | 0.9152 | 1.1714 | 1.0651 | 0.8406 | 0.9800 | 0.9726 | 0.8950 | 1.0529 | 0.9976 | 1.0444 | 1.1522 | 0.6800 | 1.25 | 1.352 | 0.9646 | 0.8356 | 0.8292 | 0.7591 | 0.9131 | 1.058 | Burkin Assay in Myotubes, α7 integrin LacZ reporter signal relative to DMSO ([4]; 5 uM): 0.9184; Burkin Assay in Myotubes, α7 integrin LacZ reporter signal relative to DMSO ([4]; 10 uM): 0.876; Burkin Assay in Myotubes, α7 integrin LacZ reporter signal relative to DMSO ([4]; 20 uM): 0.6621; Burkin Assay in Myotubes, α7 integrin LacZ reporter signal relative to DMSO ([4]; 40 uM): 0.5548 |
| O=C(NCCc1ccccc1)C1CCC(=O)N1C1CCCC1 (stereo not drawn) [MLS001200665-01] | 1.1543 | 0.9695 | 1.1274 | 0.9662 | 1.1800 | 1.2706 | 1.1043 | 0.9783 | 0.9398 | 1.0036 | 0.7152 | 0.9937 | 0.8982 | 0.8539 | 1.003 | 1.245 | 1.143 | 1.029 | 1.031 | 0.8461 | Burkin Assay in Myotubes, α7 integrin LacZ reporter signal relative to DMSO ([4]; 5 uM): 1.091; Burkin Assay in Myotubes, α7 integrin LacZ reporter signal relative to DMSO ([4]; 10 uM): 1.126; Burkin Assay in Myotubes, α7 integrin LacZ reporter signal relative to DMSO ([4]; 20 uM): 0.8365; Burkin Assay in Myotubes, α7 integrin LacZ reporter signal relative to DMSO ([4]; 40 uM): 0.8877 |
| COc1ccc(CN2CCNC(=O)C2CC(=O)NCCc2c[nH]c3ccccc23)c(OC)c1 (stereo not drawn) [MLS000734270-01] | 1.0019 | 1.0038 | 1.1042 | 1.0885 | 1.1158 | 0.9095 | 0.9296 | 0.8379 | 0.9337 | 0.9468 | 1.0122 | 0.9548 | 1.0135 | 1.048 | 1.21 | 0.955 | 0.9739 | 0.9873 | 0.941 | 0.8975 | Burkin Assay in Myotubes, α7 integrin LacZ reporter signal relative to DMSO ([4]; 5 uM): 1.083; Burkin Assay in Myotubes, α7 integrin LacZ reporter signal relative to DMSO ([4]; 10 uM): 0.9081; Burkin Assay in Myotubes, α7 integrin LacZ reporter signal relative to DMSO ([4]; 20 uM): 0.8558; Burkin Assay in Myotubes, α7 integrin LacZ reporter signal relative to DMSO ([4]; 40 uM): 0.8102 |
| CNC(=O)CSc1nnc(-c2ccc3c(c2)OCO3)n1C [MLS000717689-01] | 0.8415 | 1.0956 | 0.9686 | 0.9569 | 0.9576 | 0.9129 | 1.0125 | 1.0203 | 1.1129 | 1.0936 | 1.0407 | 0.8996 | 1.158 | 1.042 | 1.032 | 1.038 | 0.96 | 0.9866 | 1.111 | 0.9006 | Burkin Assay in Myotubes, α7 integrin LacZ reporter signal relative to DMSO ([4]; 5 uM): 1.048; Burkin Assay in Myotubes, α7 integrin LacZ reporter signal relative to DMSO ([4]; 10 uM): 1.076; Burkin Assay in Myotubes, α7 integrin LacZ reporter signal relative to DMSO ([4]; 20 uM): 0.8283; Burkin Assay in Myotubes, α7 integrin LacZ reporter signal relative to DMSO ([4]; 40 uM): 0.7135 |
| Cc1noc(C)c1COc1ccc(C(=O)NCCc2ccccn2)cc1 [MLS001061374-01] | 1.2568 | 1.1000 | 1.1237 | 0.8498 | 1.1689 | 1.0489 | 0.7117 | 1.1702 | 1.0601 | 0.9793 | 0.9744 | 1.1037 | 0.8477 | 0.8448 | 0.9826 | 1.169 | 0.873 | 0.6774 | 1.058 | 1.092 | Burkin Assay in Myotubes, α7 integrin LacZ reporter signal relative to DMSO ([4]; 5 uM): 1.004; Burkin Assay in Myotubes, α7 integrin LacZ reporter signal relative to DMSO ([4]; 10 uM): 1.181; Burkin Assay in Myotubes, α7 integrin LacZ reporter signal relative to DMSO ([4]; 20 uM): 0.732; Burkin Assay in Myotubes, α7 integrin LacZ reporter signal relative to DMSO ([4]; 40 uM): 0.8155 |
